Measurements published in patent publication US12581252B2, “Substituted pyrrolo[3,4-b]pyridines as PI3K-α inhibitors” (Relay Therapeutics, Inc., priority 2020, dated 2026).

Test system: not listed separately
Test: cells
Conditions: Homo sapiens, MCF-10A, read-out: MCF10A IC50

Row | Structure (SMILES) | IC50
1 | CC(C)(O)c1cc(NC(=O)c2cc(F)cc(Cl)c2)c2c(c1)C(=O)N[C@H]2c1cc(F)ccc1Cl [Compound I-298] | < 1 µM
2 | O=C(Nc1cc(Br)cc2c1[C@H](c1cc(F)ccc1Cl)NC2=O)c1cc(F)cc(C(F)(F)F)c1 [Compound I-388] | < 1 µM
3 | CNC(=O)c1cc(NC(=O)c2cc(F)cc(C(F)(F)F)c2)c2c(c1)C(=O)NC2c1cc(F)ccc1Cl (stereo not shown) [Compound I-493] | < 1 µM
4 | O=C(Nc1cccc2c1[C@H](c1cc(F)ccc1Cl)NC2=O)c1cc(F)cc(C(F)(F)F)c1 [Compound I-500] | < 1 µM
5 | COCc1cc(NC(=O)c2cc(F)cc(C(F)(F)F)c2)c2c(c1)C(=O)N[C@H]2c1cc(F)ccc1Cl [Compound I-691] | < 1 µM
6 | O=C(Nc1cc(-c2ccc(=O)n(C3CC3)c2)nc2c1[C@H](c1cc(F)ccc1Cl)NC2=O)c1cc(F)cc(C(F)(F)F)c1 [Compound I-747] | < 1 µM
7 | Cn1cc(-c2cc(NC(=O)c3cc(F)cc(C(F)(F)F)c3)c3c(c2)C(=O)NC3c2cc(F)ccc2Cl)cn1 (stereo not shown) [Compound I-811] | < 1 µM
8 | O=C(Nc1cc(NC2COC2)cc2c1[C@H](c1cc(F)ccc1Cl)NC2=O)c1cc(F)cc(C(F)(F)F)c1 [Compound I-814] | < 1 µM
9 | O=C(Nc1cc(-c2c[nH]nn2)cc2c1C(c1cc(F)ccc1Cl)NC2=O)c1cc(F)cc(C(F)(F)F)c1 (stereo not shown) [Compound I-840] | < 1 µM
10 | Cc1nocc1Nc1cc(NC(=O)c2cc(F)cc(C(F)(F)F)c2)c2c(c1)C(=O)NC2c1cc(F)ccc1Cl (stereo not shown) [Compound I-856] | < 1 µM
11 | O=C(Nc1cc(-c2ccn[nH]2)cc2c1[C@H](c1cc(F)ccc1Cl)NC2=O)c1cc(F)cc(C(F)(F)F)c1 [Compound I-865] | < 1 µM
12 | N#CC1(CNc2cc(NC(=O)c3cc(F)cc(C(F)(F)F)c3)c3c(c2)C(=O)N[C@H]3c2cc(F)ccc2Cl)CC1 [Compound I-868] | < 1 µM
13 | O=C(Nc1cc(-c2cn[nH]c2)cc2c1C(c1cc(F)ccc1Cl)NC2=O)c1cc(F)cc(C(F)(F)F)c1 (stereo not shown) [Compound I-878] | < 1 µM
14 | COc1ncc(-c2cc(NC(=O)c3cc(F)cc(C(F)(F)F)c3)c3c(c2)C(=O)N[C@H]3c2cc(F)ccc2Cl)cn1 [Compound I-882] | < 1 µM
15 | O=C(Nc1cc(-c2cnc3nccn3c2)cc2c1[C@H](c1cc(F)ccc1Cl)NC2=O)c1cc(F)cc(C(F)(F)F)c1 [Compound I-884] | < 1 µM
16 | O=C(Nc1cc(-c2ccncc2F)cc2c1C(c1cc(F)ccc1Cl)NC2=O)c1cc(F)cc(C(F)(F)F)c1 (stereo not shown) [Compound I-887] | < 1 µM
17 | O=C(Nc1cc(-c2ccc3ncccc3c2)cc2c1[C@H](c1cc(F)ccc1Cl)NC2=O)c1cc(F)cc(C(F)(F)F)c1 [Compound I-894] | < 1 µM
18 | CC(C)(O)CNc1cc(NC(=O)c2cc(F)cc(C(F)(F)F)c2)c2c(c1)C(=O)N[C@@H]2c1cc(F)ccc1Cl [Compound I-900] | < 1 µM

Row | Structure (SMILES) | IC50
19 | Cn1cccc(-c2cc(NC(=O)c3cc(F)cc(C(F)(F)F)c3)c3c(c2)C(=O)NC3c2cc(F)ccc2Cl)c1=O (stereo not shown) [Compound I-901] | 1 to 5 µM
20 | O=C(Nc1cc(-c2cccc3cnccc23)cc2c1C(c1cc(F)ccc1Cl)NC2=O)c1cc(F)cc(C(F)(F)F)c1 (stereo not shown) [Compound I-902] | < 1 µM
21 | O=C(Nc1cc(-c2cnn(C3CNC3)c2)cc2c1C(c1cc(F)ccc1Cl)NC2=O)c1cc(F)cc(C(F)(F)F)c1 (stereo not shown) [Compound I-903] | 10 to 36 µM
22 | O=C(Nc1cc(-c2cnn(C3COC3)c2)cc2c1C(c1cc(F)ccc1Cl)NC2=O)c1cc(F)cc(C(F)(F)F)c1 (stereo not shown) [Compound I-904] | < 1 µM
23 | O=C(Nc1cc(-c2ccc3nccn3n2)cc2c1C(c1cc(F)ccc1Cl)NC2=O)c1cc(F)cc(C(F)(F)F)c1 (stereo not shown) [Compound I-905] | < 1 µM
24 | Cn1nccc1-c1cc(NC(=O)c2cc(F)cc(C(F)(F)F)c2)c2c(c1)C(=O)NC2c1cc(F)ccc1Cl (stereo not shown) [Compound I-906] | < 1 µM
25 | O=C(Nc1cc(I)cc2c1C(c1cc(F)ccc1Cl)NC2=O)c1cc(F)cc(C(F)(F)F)c1 (stereo not shown) [Compound I-913] | < 1 µM
26 | CSCc1cc(NC(=O)c2cc(F)cc(C(F)(F)F)c2)c2c(c1)C(=O)NC2c1cc(F)ccc1Cl (stereo not shown) [Compound I-914] | < 1 µM
27 | O=C(Nc1cc(-c2ncco2)cc2c1C(c1cc(F)ccc1Cl)NC2=O)c1cc(F)cc(C(F)(F)F)c1 (stereo not shown) [Compound I-915] | < 1 µM
28 | O=C(Nc1cc(-c2ccc[nH]c2=O)cc2c1C(c1cc(F)ccc1Cl)NC2=O)c1cc(F)cc(C(F)(F)F)c1 (stereo not shown) [Compound I-916] | < 1 µM
29 | Cn1cc(Nc2cc(NC(=O)c3cc(F)cc(C(F)(F)F)c3)c3c(c2)C(=O)NC3c2cc(F)ccc2Cl)cn1 (stereo not shown) [Compound I-917] | < 1 µM
30 | O=C(Nc1cc(-c2ncc[nH]2)cc2c1[C@H](c1cc(F)ccc1Cl)NC2=O)c1cc(F)cc(C(F)(F)F)c1 [Compound I-919] | < 1 µM
31 | O=C(Nc1cc(-c2cscn2)cc2c1C(c1cc(F)ccc1Cl)NC2=O)c1cc(F)cc(C(F)(F)F)c1 (stereo not shown) [Compound I-920] | < 1 µM
32 | O=C(Nc1cc(-c2nccs2)cc2c1C(c1cc(F)ccc1Cl)NC2=O)c1cc(F)cc(C(F)(F)F)c1 (stereo not shown) [Compound I-921] | < 1 µM
33 | Cn1nccc1Nc1cc(NC(=O)c2cc(F)cc(C(F)(F)F)c2)c2c(c1)C(=O)NC2c1cc(F)ccc1Cl (stereo not shown) [Compound I-922] | < 1 µM
34 | Cc1noc(C)c1Nc1cc(NC(=O)c2cc(F)cc(C(F)(F)F)c2)c2c(c1)C(=O)NC2c1cc(F)ccc1Cl (stereo not shown) [Compound I-923] | < 1 µM
35 | Cc1nn(C)cc1Nc1cc(NC(=O)c2cc(F)cc(C(F)(F)F)c2)c2c(c1)C(=O)NC2c1cc(F)ccc1Cl (stereo not shown) [Compound I-924] | < 1 µM

Molecular target: H1047R PIK3CA enzyme (Homo sapiens, UniProt P42336, H1047R)
Test: ADP-Glo Biochemical PIK3CA Kinase Assay
Conditions: not given

H1047R PIK3CA enzyme, sequence (P42336 whole entry H1047R): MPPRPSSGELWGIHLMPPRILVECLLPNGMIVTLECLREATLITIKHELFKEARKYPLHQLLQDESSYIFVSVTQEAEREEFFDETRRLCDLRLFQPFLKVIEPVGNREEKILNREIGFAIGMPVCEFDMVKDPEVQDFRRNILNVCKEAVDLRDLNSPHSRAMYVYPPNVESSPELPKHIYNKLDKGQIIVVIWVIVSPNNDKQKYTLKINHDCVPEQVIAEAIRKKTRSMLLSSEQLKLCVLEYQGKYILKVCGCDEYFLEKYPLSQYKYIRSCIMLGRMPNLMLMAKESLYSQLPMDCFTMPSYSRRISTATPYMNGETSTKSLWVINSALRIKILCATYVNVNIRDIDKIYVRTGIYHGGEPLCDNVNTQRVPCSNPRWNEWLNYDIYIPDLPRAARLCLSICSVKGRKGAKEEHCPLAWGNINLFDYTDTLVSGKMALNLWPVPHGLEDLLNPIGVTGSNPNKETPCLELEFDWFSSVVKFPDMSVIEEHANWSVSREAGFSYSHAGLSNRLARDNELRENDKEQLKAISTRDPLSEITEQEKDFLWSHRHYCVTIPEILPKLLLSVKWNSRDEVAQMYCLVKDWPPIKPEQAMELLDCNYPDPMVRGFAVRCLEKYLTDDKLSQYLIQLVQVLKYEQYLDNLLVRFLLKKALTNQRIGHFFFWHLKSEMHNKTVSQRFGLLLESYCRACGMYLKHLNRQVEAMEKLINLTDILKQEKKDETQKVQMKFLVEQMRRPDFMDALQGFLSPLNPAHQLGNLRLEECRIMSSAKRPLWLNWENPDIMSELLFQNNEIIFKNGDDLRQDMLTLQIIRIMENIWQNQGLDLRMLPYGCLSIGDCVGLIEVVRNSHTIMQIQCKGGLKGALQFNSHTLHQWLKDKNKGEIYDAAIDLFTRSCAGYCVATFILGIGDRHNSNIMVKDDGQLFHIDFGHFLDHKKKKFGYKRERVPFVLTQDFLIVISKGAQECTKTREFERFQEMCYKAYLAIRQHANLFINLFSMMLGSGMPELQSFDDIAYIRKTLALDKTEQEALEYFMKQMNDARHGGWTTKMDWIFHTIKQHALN
H1047R PIK3CA enzyme, sequence (P27986 whole entry partner): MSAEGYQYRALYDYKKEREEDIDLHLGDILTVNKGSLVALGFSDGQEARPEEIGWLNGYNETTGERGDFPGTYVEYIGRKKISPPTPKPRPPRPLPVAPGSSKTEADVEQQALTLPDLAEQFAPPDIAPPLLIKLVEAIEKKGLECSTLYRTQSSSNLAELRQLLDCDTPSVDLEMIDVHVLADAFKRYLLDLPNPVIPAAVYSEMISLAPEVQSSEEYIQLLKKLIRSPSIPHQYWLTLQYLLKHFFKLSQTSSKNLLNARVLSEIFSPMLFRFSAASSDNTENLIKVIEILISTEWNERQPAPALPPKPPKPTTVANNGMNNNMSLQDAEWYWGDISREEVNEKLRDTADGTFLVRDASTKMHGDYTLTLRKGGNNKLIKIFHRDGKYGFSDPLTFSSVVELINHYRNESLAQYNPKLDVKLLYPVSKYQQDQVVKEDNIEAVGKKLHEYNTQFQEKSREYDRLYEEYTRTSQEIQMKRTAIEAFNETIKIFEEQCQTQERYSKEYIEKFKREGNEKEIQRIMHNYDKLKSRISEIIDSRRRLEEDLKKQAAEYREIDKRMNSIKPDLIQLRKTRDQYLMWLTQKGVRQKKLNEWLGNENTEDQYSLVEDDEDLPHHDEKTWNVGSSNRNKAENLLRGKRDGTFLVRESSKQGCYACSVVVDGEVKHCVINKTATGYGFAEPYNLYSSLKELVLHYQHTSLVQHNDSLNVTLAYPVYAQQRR

Row | Structure (SMILES) | IC50
36 | CC(C)(O)c1cc(NC(=O)c2cc(F)cc(Cl)c2)c2c(c1)C(=O)N[C@H]2c1cc(F)ccc1Cl [Compound I-298] | ≤ 0.1 µM
37 | O=C(Nc1cc(Br)cc2c1[C@H](c1cc(F)ccc1Cl)NC2=O)c1cc(F)cc(C(F)(F)F)c1 [Compound I-388] | ≤ 0.1 µM
38 | CNC(=O)c1cc(NC(=O)c2cc(F)cc(C(F)(F)F)c2)c2c(c1)C(=O)NC2c1cc(F)ccc1Cl (stereo not shown) [Compound I-493] | ≤ 0.1 µM
39 | O=C(Nc1cccc2c1[C@H](c1cc(F)ccc1Cl)NC2=O)c1cc(F)cc(C(F)(F)F)c1 [Compound I-500] | ≤ 0.1 µM
40 | COCc1cc(NC(=O)c2cc(F)cc(C(F)(F)F)c2)c2c(c1)C(=O)N[C@H]2c1cc(F)ccc1Cl [Compound I-691] | ≤ 0.1 µM
41 | O=C(Nc1cc(-c2ccc(=O)n(C3CC3)c2)nc2c1[C@H](c1cc(F)ccc1Cl)NC2=O)c1cc(F)cc(C(F)(F)F)c1 [Compound I-747] | ≤ 0.1 µM
42 | Cn1cc(-c2cc(NC(=O)c3cc(F)cc(C(F)(F)F)c3)c3c(c2)C(=O)NC3c2cc(F)ccc2Cl)cn1 (stereo not shown) [Compound I-811] | ≤ 0.1 µM
43 | O=C(Nc1cc(NC2COC2)cc2c1[C@H](c1cc(F)ccc1Cl)NC2=O)c1cc(F)cc(C(F)(F)F)c1 [Compound I-814] | ≤ 0.1 µM
44 | O=C(Nc1cc(-c2c[nH]nn2)cc2c1C(c1cc(F)ccc1Cl)NC2=O)c1cc(F)cc(C(F)(F)F)c1 (stereo not shown) [Compound I-840] | ≤ 0.1 µM
45 | Cc1nocc1Nc1cc(NC(=O)c2cc(F)cc(C(F)(F)F)c2)c2c(c1)C(=O)NC2c1cc(F)ccc1Cl (stereo not shown) [Compound I-856] | ≤ 0.1 µM
46 | O=C(Nc1cc(-c2ccn[nH]2)cc2c1[C@H](c1cc(F)ccc1Cl)NC2=O)c1cc(F)cc(C(F)(F)F)c1 [Compound I-865] | ≤ 0.1 µM
47 | N#CC1(CNc2cc(NC(=O)c3cc(F)cc(C(F)(F)F)c3)c3c(c2)C(=O)N[C@H]3c2cc(F)ccc2Cl)CC1 [Compound I-868] | ≤ 0.1 µM
48 | O=C(Nc1cc(-c2cn[nH]c2)cc2c1C(c1cc(F)ccc1Cl)NC2=O)c1cc(F)cc(C(F)(F)F)c1 (stereo not shown) [Compound I-878] | ≤ 0.1 µM
49 | COc1ncc(-c2cc(NC(=O)c3cc(F)cc(C(F)(F)F)c3)c3c(c2)C(=O)N[C@H]3c2cc(F)ccc2Cl)cn1 [Compound I-882] | ≤ 0.1 µM
50 | O=C(Nc1cc(-c2cnc3nccn3c2)cc2c1[C@H](c1cc(F)ccc1Cl)NC2=O)c1cc(F)cc(C(F)(F)F)c1 [Compound I-884] | ≤ 0.1 µM
51 | O=C(Nc1cc(-c2ccncc2F)cc2c1C(c1cc(F)ccc1Cl)NC2=O)c1cc(F)cc(C(F)(F)F)c1 (stereo not shown) [Compound I-887] | ≤ 0.1 µM
52 | O=C(Nc1cc(-c2ccc3ncccc3c2)cc2c1[C@H](c1cc(F)ccc1Cl)NC2=O)c1cc(F)cc(C(F)(F)F)c1 [Compound I-894] | ≤ 0.1 µM
53 | CC(C)(O)CNc1cc(NC(=O)c2cc(F)cc(C(F)(F)F)c2)c2c(c1)C(=O)N[C@@H]2c1cc(F)ccc1Cl [Compound I-900] | ≤ 0.1 µM

Row | Structure (SMILES) | IC50
54 | Cn1cccc(-c2cc(NC(=O)c3cc(F)cc(C(F)(F)F)c3)c3c(c2)C(=O)NC3c2cc(F)ccc2Cl)c1=O (stereo not shown) [Compound I-901] | 0.1 to 0.5 µM
55 | O=C(Nc1cc(-c2cccc3cnccc23)cc2c1C(c1cc(F)ccc1Cl)NC2=O)c1cc(F)cc(C(F)(F)F)c1 (stereo not shown) [Compound I-902] | ≤ 0.1 µM
56 | O=C(Nc1cc(-c2cnn(C3CNC3)c2)cc2c1C(c1cc(F)ccc1Cl)NC2=O)c1cc(F)cc(C(F)(F)F)c1 (stereo not shown) [Compound I-903] | ≤ 0.1 µM
57 | O=C(Nc1cc(-c2cnn(C3COC3)c2)cc2c1C(c1cc(F)ccc1Cl)NC2=O)c1cc(F)cc(C(F)(F)F)c1 (stereo not shown) [Compound I-904] | ≤ 0.1 µM
58 | O=C(Nc1cc(-c2ccc3nccn3n2)cc2c1C(c1cc(F)ccc1Cl)NC2=O)c1cc(F)cc(C(F)(F)F)c1 (stereo not shown) [Compound I-905] | ≤ 0.1 µM
59 | Cn1nccc1-c1cc(NC(=O)c2cc(F)cc(C(F)(F)F)c2)c2c(c1)C(=O)NC2c1cc(F)ccc1Cl (stereo not shown) [Compound I-906] | ≤ 0.1 µM
60 | O=C(Nc1cc(I)cc2c1C(c1cc(F)ccc1Cl)NC2=O)c1cc(F)cc(C(F)(F)F)c1 (stereo not shown) [Compound I-913] | ≤ 0.1 µM
61 | CSCc1cc(NC(=O)c2cc(F)cc(C(F)(F)F)c2)c2c(c1)C(=O)NC2c1cc(F)ccc1Cl (stereo not shown) [Compound I-914] | ≤ 0.1 µM
62 | O=C(Nc1cc(-c2ncco2)cc2c1C(c1cc(F)ccc1Cl)NC2=O)c1cc(F)cc(C(F)(F)F)c1 (stereo not shown) [Compound I-915] | ≤ 0.1 µM
63 | O=C(Nc1cc(-c2ccc[nH]c2=O)cc2c1C(c1cc(F)ccc1Cl)NC2=O)c1cc(F)cc(C(F)(F)F)c1 (stereo not shown) [Compound I-916] | ≤ 0.1 µM
64 | Cn1cc(Nc2cc(NC(=O)c3cc(F)cc(C(F)(F)F)c3)c3c(c2)C(=O)NC3c2cc(F)ccc2Cl)cn1 (stereo not shown) [Compound I-917] | ≤ 0.1 µM
65 | O=C(Nc1cc(-c2ncc[nH]2)cc2c1[C@H](c1cc(F)ccc1Cl)NC2=O)c1cc(F)cc(C(F)(F)F)c1 [Compound I-919] | ≤ 0.1 µM
66 | O=C(Nc1cc(-c2cscn2)cc2c1C(c1cc(F)ccc1Cl)NC2=O)c1cc(F)cc(C(F)(F)F)c1 (stereo not shown) [Compound I-920] | ≤ 0.1 µM
67 | O=C(Nc1cc(-c2nccs2)cc2c1C(c1cc(F)ccc1Cl)NC2=O)c1cc(F)cc(C(F)(F)F)c1 (stereo not shown) [Compound I-921] | ≤ 0.1 µM
68 | Cn1nccc1Nc1cc(NC(=O)c2cc(F)cc(C(F)(F)F)c2)c2c(c1)C(=O)NC2c1cc(F)ccc1Cl (stereo not shown) [Compound I-922] | ≤ 0.1 µM
69 | Cc1noc(C)c1Nc1cc(NC(=O)c2cc(F)cc(C(F)(F)F)c2)c2c(c1)C(=O)NC2c1cc(F)ccc1Cl (stereo not shown) [Compound I-923] | ≤ 0.1 µM
70 | Cc1nn(C)cc1Nc1cc(NC(=O)c2cc(F)cc(C(F)(F)F)c2)c2c(c1)C(=O)NC2c1cc(F)ccc1Cl (stereo not shown) [Compound I-924] | ≤ 0.1 µM
